The values below come from patent publication US20150005288A1, “SUBSTITUTED PHENYLIMIDAZOPYRAZOLES AND USE THEREOF” (Bayer Intellectual Property GmbH, priority 2012, published 2015).

Counter-ions that a name gives are not always drawn.

The target of this experiment is T1, intracellular domain of human Tie2 (GST fusion protein) (Homo sapiens, UniProt Q02763).
T1 construct: intracellular domain of human Tie2 (amino acids 776-1124); made in house; host or cells: Baculovirus-infected insect cells (Hi5)
T1 sequence (Q02763 776-1124): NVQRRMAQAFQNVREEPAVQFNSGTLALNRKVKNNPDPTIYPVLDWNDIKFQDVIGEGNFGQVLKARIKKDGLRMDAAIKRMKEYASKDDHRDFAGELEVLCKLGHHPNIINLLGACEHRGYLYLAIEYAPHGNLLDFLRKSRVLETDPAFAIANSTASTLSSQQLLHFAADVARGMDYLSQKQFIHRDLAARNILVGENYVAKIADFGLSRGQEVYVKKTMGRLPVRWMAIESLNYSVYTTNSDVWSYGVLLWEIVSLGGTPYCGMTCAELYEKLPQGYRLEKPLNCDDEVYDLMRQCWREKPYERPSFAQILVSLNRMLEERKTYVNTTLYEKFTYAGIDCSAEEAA
Description: Tie2 kinase assay (Tie2-TR-FRET). It counts as biochemical. To be noted: ATP concentration 1 mM, in some cases means of several independent determinations. In short, it runs like this: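 High ATP (1 mM final) with 1 μM biotin-peptide substrate; reaction 60 min at 22 °C after 15 min compound pre-binding to GST-Tie2 (aa 776-1124) in HEPES pH 7 with Mg/Mn. Phosphopeptide detected by TR-FRET emission ratio 665/620 nm. IC50 from 4-parameter fit over 20 μM to 0.073 nM, duplicates.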
For orientation: IC50 means the concentration that inhibits the measured activity by half. Higher therefore signals weaker potency in that assay. Consider `Cc1ccc(NC(=O)c2cc(C(C)(C)C)ccn2)cc1-n1ccn2nc(-c3cccnc3)cc12` [Example 125, 4-tert-Butyl-N-{4-methyl-3-[6-(pyridin-3-yl)-1H-imidazo[1,2-b]pyrazol-1-yl]phenyl}pyridine-2-carboxamide], for which the half-maximal inhibitory concentration (IC50) amounted to 280 nM.

`Cc1cc(C)c(-n2ccn3nc(-c4cccnc4)cc23)cc1NC(=O)c1cccc(SC(F)(F)F)c1` [Example 126, N-{2,4-Dimethyl-5-[6-(pyridin-3-yl)-1H-imidazo[1,2-b]pyrazol-1-yl]phenyl}-3-[(trifluoromethyl)-sulphanyl]benzamide] gave a half-maximal inhibitory concentration (IC50) of 1.2 nM.

Take `Cc1cc(C)c(-n2ccn3nc(-c4cccnc4)cc23)cc1NC(=O)c1cccc(OC(F)(F)F)c1` [Example 127, N-{2,4-Dimethyl-5-[6-(pyridin-3-yl)-1H-imidazo[1,2-b]pyrazol-1-yl]phenyl}-3-(trifluoromethoxy)benzamide]: the half-maximal inhibitory concentration (IC50) was determined as 1.4 nM.

`Cc1cc(C)c(-n2ccn3nc(-c4cccnc4)cc23)cc1NC(=O)c1cccc(OC(F)F)c1` [Example 128, N-{2,4-Dimethyl-5-[6-(pyridin-3-yl)-1H-imidazo[1,2-b]pyrazol-1-yl]phenyl}-3-(difluoromethoxy)-benzamide] registered an IC50 of 43 nM.

The compound `Cc1cc(C)c(-n2ccn3nc(-c4cccnc4)cc23)cc1NC(=O)c1cccc(OC(F)(F)C(F)F)c1` [Example 129, N-{2,4-Dimethyl-5-[6-(pyridin-3-yl)-1H-imidazo[1,2-b]pyrazol-1-yl]phenyl}-3-(1,1,2,2-tetra-fluoroethoxy)benzamide] came in with an IC50 of 3.2 nM.

Compound `Cc1cc(C)c(-n2ccn3nc(-c4cccnc4)cc23)cc1NC(=O)c1cccc(OCC(F)(F)F)c1` [Example 130, N-{2,4-Dimethyl-5-[6-(pyridin-3-yl)-1H-imidazo[1,2-b]pyrazol-1-yl]phenyl}-3-(2,2,2-trifluoroethoxy)benzamide] yielded a concentration for half-maximal inhibition (IC50) of 24 nM.

Compound `COc1cccc(C(=O)Nc2cc(-n3ccn4nc(-c5cccnc5)cc34)c(C)cc2C)c1` [Example 131, N-{2,4-Dimethyl-5-[6-(pyridin-3-yl)-1H-imidazo[1,2-b]pyrazol-1-yl]phenyl}-3-methoxybenzamide] returned an IC50 of 252 nM.

With `Cc1cc(C)c(-n2ccn3nc(-c4cccnc4)cc23)cc1NC(=O)c1cccc(OC(C)C)c1` [Example 132, N-{2,4-Dimethyl-5-[6-(pyridin-3-yl)-1H-imidazo[1,2-b]pyrazol-1-yl]phenyl}-3-isopropoxybenzamide], half-maximal inhibition (IC50) required 4.6 nM.

In turn, `Cc1cc(C)c(-n2ccn3nc(-c4cccnc4)cc23)cc1NC(=O)c1cccc(OCC(C)C)c1` [Example 133, N-{2,4-Dimethyl-5-[6-(pyridin-3-yl)-1H-imidazo[1,2-b]pyrazol-1-yl]phenyl}-3-isobutoxybenzamide] came in with an IC50 of 53 nM.

Regarding `Cc1cc(C)c(-n2ccn3nc(-c4cccnc4)cc23)cc1NC(=O)c1cccc(OC(C)(C)C)c1` [Example 134, 3-tert-Butoxy-N-{2,4-dimethyl-5-[6-(pyridin-3-yl)-1H-imidazo[1,2-b]pyrazol-1-yl]phenyl}-benzamide], the IC50 was 55 nM.

In turn, `CCOCCOc1cccc(C(=O)Nc2cc(-n3ccn4nc(-c5cccnc5)cc34)c(C)cc2C)c1` [Example 135, N-{2,4-Dimethyl-5-[6-(pyridin-3-yl)-1H-imidazo[1,2-b]pyrazol-1-yl]phenyl}-3-(2-ethoxyethoxy)-benzamide] displayed a 50% inhibitory concentration (IC50) of 607 nM.

As for `Cc1cc(C)c(-n2ccn3nc(-c4cccnc4)cc23)cc1NC(=O)c1cccc(OCCO)c1` [Example 136, N-{2,4-Dimethyl-5-[6-(pyridin-3-yl)-1H-imidazo[1,2-b]pyrazol-1-yl]phenyl}-3-(2-hydroxyethoxy)benzamide], the half-maximal inhibitory concentration (IC50) came to 687 nM.

Take `Cc1cc(C)c(-n2ccn3nc(-c4cccnc4)cc23)cc1NC(=O)c1cccc(OCCN(C)C)c1` [Example 137, 3-[2-(Dimethylamino)ethoxy]-N-{2,4-dimethyl-5-[6-(pyridin-3-yl)-1H-imidazo[1,2-b]pyrazol-1-yl]phenyl}benzamide]: it took 409 nM to reach half-maximal inhibition (IC50).

For `Cc1cc(C)c(-n2ccn3nc(-c4cccnc4)cc23)cc1NC(=O)c1cccc(N2CCC(F)(F)CC2)c1` [Example 138, 3-(4,4-Difluoropiperidin-1-yl)-N-{2,4-dimethyl-5-[6-(pyridin-3-yl)-1H-imidazo[1,2-b]pyrazol-1-yl]phenyl}benzamide], the 50% inhibitory concentration (IC50) worked out at 65 nM.

Compound `Cc1cc(C)c(-n2ccn3nc(-c4cccnc4)cc23)cc1NC(=O)c1cccc(C(C)(C)C(F)(F)F)c1` [Example 139, N-{2,4-Dimethyl-5-[6-(pyridin-3-yl)-1H-imidazo[1,2-b]pyrazol-1-yl]phenyl}-3-(1,1,1-trifluoro-2-methylpropan-2-yl)benzamide] displayed an IC50 of 0.5 nM.

Compound `Cc1cc(C)c(-n2ccn3nc(-c4cccnc4)cc23)cc1NC(=O)c1cccc(C2(C)COC2)c1` [Example 140, N-{2,4-Dimethyl-5-[6-(pyridin-3-yl)-1H-imidazo[1,2-b]pyrazol-1-yl]phenyl}-3-(3-methyloxetan-3-yl)benzamide] gave a half-maximal inhibitory concentration (IC50) of 0.5 nM.

`Cc1cc(C)c(-n2ccn3nc(-c4cccnc4)cc23)cc1NC(=O)c1cccc(C(C)(C)O)c1` [Example 141, N-{2,4-Dimethyl-5-[6-(pyridin-3-yl)-1H-imidazo[1,2-b]pyrazol-1-yl]phenyl}-3-(2-hydroxypropan-2-yl)benzamide]: inhibition was half-maximal at 62 nM (IC50).

Take `Cc1cc(C)c(-n2ccn3nc(-c4cccnc4)cc23)cc1NC(=O)c1cccc(C(C)(C)F)c1` [Example 142, N-{2,4-Dimethyl-5-[6-(pyridin-3-yl)-1H-imidazo[1,2-b]pyrazol-1-yl]phenyl}-3-(2-fluoropropan-2-yl)benzamide]: the concentration for half-maximal inhibition (IC50) was determined as 0.9 nM.

Take `Cc1cc(C)c(-n2ccn3nc(-c4cccnc4)cc23)cc1NC(=O)c1cc(N2CCCCC2)cc(S(F)(F)(F)(F)F)c1` [Example 143, N-{2,4-Dimethyl-5-[6-(pyridin-3-yl)-1H-imidazo[1,2-b]pyrazol-1-yl]phenyl}-3-(pentafluoro-λ^6-sulphanyl)-5-(piperidin-1-yl)benzamide]: the IC50 stood at 1.3 nM.

For the compound `Cc1cc(C)c(-n2ccn3nc(-c4cccnc4)cc23)cc1NC(=O)c1cc(N2CCC(C#N)CC2)cc(S(F)(F)(F)(F)F)c1` [Example 144, 3-(4-Cyanopiperidin-1-yl)-N-{2,4-dimethyl-5-[6-(pyridin-3-yl)-1H-imidazo[1,2-b]pyrazol-1-yl]-phenyl}-5-(pentafluoro-λ^6-sulphanyl)benzamide], the IC50 came out at 0.6 nM.

`COC1CCN(c2cc(C(=O)Nc3cc(-n4ccn5nc(-c6cccnc6)cc45)c(C)cc3C)cc(S(F)(F)(F)(F)F)c2)CC1` [Example 145, N-{2,4-Dimethyl-5-[6-(pyridin-3-yl)-1H-imidazo[1,2-b]pyrazol-1-yl]phenyl}-3-(4-methoxypiperidin-1-yl)-5-(pentafluoro-λ^6-sulphanyl)benzamide] gave an IC50 of 0.9 nM.

Compound `COC1CN(c2cc(C(=O)Nc3cc(-n4ccn5nc(-c6cccnc6)cc45)c(C)cc3C)cc(S(F)(F)(F)(F)F)c2)C1` [Example 146, N-{2,4-Dimethyl-5-[6-(pyridin-3-yl)-1H-imidazo[1,2-b]pyrazol-1-yl]phenyl}-3-(3-methoxyazetidin-1-yl)-5-(pentafluoro-λ^6-sulphanyl)benzamide] came in with an IC50 of 0.7 nM.

Take `Cc1cc(C)c(-n2ccn3nc(-c4cccnc4)cc23)cc1NC(=O)c1cc(C#N)cc(S(F)(F)(F)(F)F)c1` [Example 147, 3-Cyano-N-{2,4-dimethyl-5-[6-(pyridin-3-yl)-1H-imidazo[1,2-b]pyrazol-1-yl]phenyl}-5-(pentafluoro-λ^6-sulphanyl)benzamide dihydrochloride]: inhibition was half-maximal at 0.2 nM (IC50).

In turn, `Cc1cc(C)c(-n2ccn3nc(-c4cccnc4)cc23)cc1NC(=O)c1cc(C(C)(C)O)cc(S(F)(F)(F)(F)F)c1` [Example 148, N-{2,4-Dimethyl-5-[6-(pyridin-3-yl)-1H-imidazo[1,2-b]pyrazol-1-yl]phenyl}-3-(2-hydroxypropan-2-yl)-5-(pentafluoro-λ^6-sulphanyl)benzamide] had a concentration for half-maximal inhibition (IC50) of 0.4 nM.

`Cc1cc(C)c(-n2ccn3nc(-c4cccnc4)cc23)cc1NC(=O)c1cc(C(C)(C)F)cc(S(F)(F)(F)(F)F)c1` [Example 149, N-{2,4-Dimethyl-5-[6-(pyridin-3-yl)-1H-imidazo[1,2-b]pyrazol-1-yl]phenyl}-3-(2-fluoropropan-2-yl)-5-(pentafluoro-λ^6-sulphanyl)benzamide] gave an IC50 of 2.3 nM.

For the compound `Cc1cc(C)c(-n2ccn3nc(-c4cccnc4)cc23)cc1NC(=O)c1cc(CC(=O)OC(C)(C)C)cc(S(F)(F)(F)(F)F)c1` [Example 150, tert-Butyl [3-({2,4-dimethyl-5-[6-(pyridin-3-yl)-1H-imidazo[1,2-b]pyrazol-1-yl]phenyl}-carbamoyl)-5-(pentafluoro-λ^6-sulphanyl)phenyl]acetate], the concentration for half-maximal inhibition (IC50) came out at 2.4 nM.

In turn, `Cc1cc(C)c(-n2ccn3nc(-c4cccnc4)cc23)cc1NC(=O)c1cc(CC(=O)O)cc(S(F)(F)(F)(F)F)c1` [Example 151, [3-({2,4-Dimethyl-5-[6-(pyridin-3-yl)-1H-imidazo[1,2-b]pyrazol-1-yl]phenyl}carbamoyl)-5-(pentafluoro-λ^6-sulphanyl)phenyl]acetic acid] returned an IC50 of 6.1 nM.

In the case of `COC(=O)Cc1cc(C(=O)Nc2cc(-n3ccn4nc(-c5cccnc5)cc34)c(C)cc2C)cc(S(F)(F)(F)(F)F)c1` [Example 152, Methyl [3-({2,4-dimethyl-5-[6-(pyridin-3-yl)-1H-imidazo[1,2-b]pyrazol-1-yl]phenyl}carbamoyl)-5-(pentafluoro-λ^6-sulphanyl)phenyl]acetate], the IC50 is 0.4 nM.
